The target in the first assay is T1, HEK-hKv7.2/hKv7.3 cells (Homo sapiens, UniProt O43525+O43526).
T1 construct: P2A self-cleaving peptide between the two subunits (remnant after ribosomal skipping); expressed in transfected cells
T1 sequence (O43525 whole entry): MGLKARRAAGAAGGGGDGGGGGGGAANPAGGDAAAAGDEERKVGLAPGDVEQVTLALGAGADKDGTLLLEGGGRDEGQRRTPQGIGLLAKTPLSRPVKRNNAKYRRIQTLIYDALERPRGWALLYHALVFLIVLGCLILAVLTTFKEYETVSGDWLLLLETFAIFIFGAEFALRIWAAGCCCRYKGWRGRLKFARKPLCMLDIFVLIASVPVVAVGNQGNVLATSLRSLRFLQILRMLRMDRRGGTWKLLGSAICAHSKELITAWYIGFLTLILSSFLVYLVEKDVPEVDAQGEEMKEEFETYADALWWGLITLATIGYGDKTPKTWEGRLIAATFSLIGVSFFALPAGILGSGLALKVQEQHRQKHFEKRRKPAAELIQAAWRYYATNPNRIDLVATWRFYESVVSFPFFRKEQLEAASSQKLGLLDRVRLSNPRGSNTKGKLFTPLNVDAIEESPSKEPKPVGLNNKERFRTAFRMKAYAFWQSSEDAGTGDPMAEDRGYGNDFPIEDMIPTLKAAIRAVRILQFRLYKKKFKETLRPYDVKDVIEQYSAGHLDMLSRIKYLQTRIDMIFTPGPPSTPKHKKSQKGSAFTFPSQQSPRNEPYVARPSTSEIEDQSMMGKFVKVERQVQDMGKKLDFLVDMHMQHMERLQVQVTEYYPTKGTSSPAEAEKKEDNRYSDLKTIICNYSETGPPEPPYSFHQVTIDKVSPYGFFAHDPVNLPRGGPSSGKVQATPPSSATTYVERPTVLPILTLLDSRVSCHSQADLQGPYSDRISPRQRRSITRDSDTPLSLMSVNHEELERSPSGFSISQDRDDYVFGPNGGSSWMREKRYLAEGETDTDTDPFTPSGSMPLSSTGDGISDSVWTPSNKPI
T1 sequence (O43526 whole entry): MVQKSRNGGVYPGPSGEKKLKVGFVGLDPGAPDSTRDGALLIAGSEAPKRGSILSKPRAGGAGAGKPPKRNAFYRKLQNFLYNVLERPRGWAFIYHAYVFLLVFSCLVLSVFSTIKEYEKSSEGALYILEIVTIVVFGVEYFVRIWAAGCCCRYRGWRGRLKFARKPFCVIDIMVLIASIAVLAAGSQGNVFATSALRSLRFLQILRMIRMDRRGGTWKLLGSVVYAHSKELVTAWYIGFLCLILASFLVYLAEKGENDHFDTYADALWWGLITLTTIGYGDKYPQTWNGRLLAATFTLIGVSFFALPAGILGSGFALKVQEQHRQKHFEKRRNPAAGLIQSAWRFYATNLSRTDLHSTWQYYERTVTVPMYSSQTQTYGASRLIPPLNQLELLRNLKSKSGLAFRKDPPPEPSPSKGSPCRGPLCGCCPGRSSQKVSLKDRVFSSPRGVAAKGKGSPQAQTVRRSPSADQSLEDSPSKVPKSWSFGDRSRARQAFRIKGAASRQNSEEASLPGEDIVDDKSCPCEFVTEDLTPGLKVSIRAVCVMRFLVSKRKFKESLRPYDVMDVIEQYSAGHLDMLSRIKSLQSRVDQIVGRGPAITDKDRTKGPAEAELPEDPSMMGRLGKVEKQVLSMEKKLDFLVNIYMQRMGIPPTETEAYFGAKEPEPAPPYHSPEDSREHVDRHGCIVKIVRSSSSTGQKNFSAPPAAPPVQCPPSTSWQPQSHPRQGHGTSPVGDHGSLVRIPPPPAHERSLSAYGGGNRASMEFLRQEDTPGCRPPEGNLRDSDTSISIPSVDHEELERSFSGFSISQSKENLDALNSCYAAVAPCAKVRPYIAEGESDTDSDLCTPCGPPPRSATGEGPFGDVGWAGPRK
Briefly: Thallium influx assay for potassium channel activation. Particulars: AUC as readout, normalized to a reference compound. It counts as cell-based. The procedure: (§1) A synthesized cDNA fragment encoding human Kv7.3 and human Kv7.2 separated by a P2A sequence was inserted into the pcDNA5/FRT/TO vector using the BamHI and XhoI restriction sites. The construct was then transfected into HEK Flp-In 293 cells using Lipofectamine2000. The transfected cells were grown for 48 hours in DMEM containing 10% (v/v) FBS and 1% PenStrep and subsequently maintained under selection in DMEM containing 10% (v/v) FBS, 1 % PenStrep and 200 ug/mL Hygromycin B at 37°C in a humidified atmosphere of 5% CO2.
The thallium influx assay for potassium channel activation was performed analogously to a published procedure (C.D. Weaver, et al., J Biomol Screen 2004, 9, 671-677) using the FLIPR Potassium Assay kit (Molecular Devices). HEK-hKv7.2/hKv7.3 cells were plated onto 96-well, black-walled, clear-bottomed culture plates (Corning, Acton, MA, USA) at a density of 80,000 cells/well (100 µl/well) if the cells were assayed the following day, or 40,000 cells/well (100 µl/well) if the cells were assayed two days after seeding.
On the assay day, the medium was removed after which 50 uL/well of test compound diluted to 2x final concentration in HBSS containing 20 mM HEPES, and 50 uL/well of 2x dye load buffer were added. The cells were then incubated for 60 min at room temperature in the dark. Chloride-free stimulation buffer containing Tl^+ and K^+ at 5x final concentration (5x concentration: 5 mM in both cases) and test compound at 1x final concentration, were prepared during the incubation. The cells were then assayed in a FDSS7000EX Functional Drug Screening System (Hamamatsu). Following 60 sec of baseline fluorescence signal reading at 0.1 Hz, and 10 sec at 1 Hz, 25 uL/well of stimulation buffer were added and the fluorescence continuously measured for 50 sec at 1 Hz followed, by 4 min at 0.1 Hz. Compound effect was quantified using AUC as readout and normalized to a reference compound, which was included on each plate.
T2 sequence (O43525 whole entry): as the sequence (O43525 whole entry) above
T2 sequence (O43526 whole entry): as the sequence (O43526 whole entry) above
A word on the EC50: it is the midpoint of the concentration-response curve. Read a low EC50 as a more potent agent. On to `COC[C@H](NC(=O)CC1(O)CCCC1)c1cccc(OC(F)(F)F)c1` [Example 17, (R)-2-(1-Hydroxycyclopentyl)-N-(2-methoxy-1-(3-(trifluoromethoxy)phenyl)ethyl) acetamide], for which the EC50 came to 2500 nM.

`C[C@H](NC(=O)C[C@@H](O)C(C)(C)C)c1cccc(OC(F)(F)F)c1` [Example 1b, (R)-3-Hydroxy-4,4-dimethyl-N-[(1S)-1-[3-(trifluoromethoxy)phenyl]ethyl]pentanamide] showed an EC50 of 3300 nM.

`C[C@H](NC(=O)CC(O)(C(F)(F)F)C(F)(F)F)c1cccc(OC(F)(F)F)c1` [Example 9, 4,4,4-Trifluoro-3-hydroxy-N-[(1S)-1-[3-(trifluoro-methoxy)phenyl]ethyl]-3-(trifluoromethyl)butanamide] displayed an EC50 of 560 nM.

`C[C@H](NC(=O)CC1(O)CCC1)c1cccc(OCC(F)(F)F)c1` [Example 6, (S)-2-(1-Hydroxycyclobutyl)-N-(1-(3-(2,2,2-trifluoroethoxy)phenyl)ethyl) acetamide]: the half-maximal effective concentration (EC50) turned out to be 3000 nM.

In turn, `C[C@H](NC(=O)CC1(O)CC(F)(F)C1)c1cccc(OC(F)(F)F)c1` [Example 5, (S)-2-(3,3-difluoro-1-hydroxycyclobutyl)-N-(1-(3-(trifluoromethoxy)phenyl)ethyl)acetamide] showed a half-maximal effective concentration (EC50) of 1800 nM.

On to `C[C@H](NC(=O)C[C@H](O)C(C)(C)C)c1cccc(OC(F)(F)F)c1` [Example 1a, (S)-3-Hydroxy-4,4-dimethyl-N-((S)-1-(3-(trifluoromethoxy)phenyl)ethyl)pentanamide], for which the 50% effective concentration (EC50) was determined as 680 nM.

`C[C@H](NC(=O)CC(O)C1CC(F)(F)C1)c1cccc(OC(F)(F)F)c1` (stereo in doubt) [Example 11a, 3-(3,3-Difluorocyclobutyl)-3-hydroxy-N-((S)-1-(3-(trifluoromethoxy)phenyl)ethyl)propanamide] gave an EC50 of 1500 nM.

The next assay has as its target T2, hKv7.2/hKv7.3 cell line (HEK-hKv7.2/hKv7.3) (Homo sapiens, UniProt O43525+O43526).
T2 construct: P2A self-cleaving peptide between the two subunits (remnant after ribosomal skipping); expressed in transfected cells
Briefly: Automated whole cell patch-clamp functional test of the stable cell line. It counts as cell-based. Conditions: stable HEK-hKv7.2/hKv7.3 cell line. The method, then: as §1
On the technique in general: Patch clamp records ionic current or voltage across a cell membrane.
`CCOC(=O)Nc1ccc(NCc2ccc(F)cc2)cc1N` [Retigabine, N-(2-amino-4-(4-fluorobenzylamino)-phenyl) carbamic acid ethyl ester]: the “effect on Kv7-current” value was “potentiated”.

On to `O=C1c2ccccc2C(Cc2ccncc2)(Cc2ccncc2)c2ccccc21` [XE991], for which the “effect on Kv7-current” value is given as “sensitive”.

(Values after patent EP4241843B1, “ALCOHOL DERIVATIVES AS KV7 POTASSIUM CHANNEL OPENERS” (H. Lundbeck A/S, priority 2018, dated 2019).)
